This is an account of results in patent publication US20220288091A1, “Method for Improving Insulin Sensitivity” (priority 2019, published 2022).

Structures are written as SMILES.

Experiment [1] deals with overweight or obese subjects with prediabetes or mild type 2 diabetes. Nature of the experiment: 75-g oral glucose tolerance test (OGTT). It is filed as in vivo, human. The note with it: 50 mg every 6 hours for 9 days. The method, then:
A randomized, placebo-controlled, double-blind crossover trial was conducted to evaluate the use of an anti-glucocorticoid as a means for ameliorating insulin resistance. Mifepristone, 50 mg, or a placebo, was administered every six hours for nine days to sixteen overweight or obese (BMI 25-37 kg/m^2) subjects (seven women). Participant ages ranged from 48 to 64 years. Ten had prediabetes and six had mild diabetes type II (HgbA1c less than 7%). Treatment of the glucose disorder with diet or a stable dose of metformin (used by two patients) was maintained for three (3) months before the study. The interventions were nine days of mifepristone or placebo treatment followed by a six (6) to eight (8) week wash out and cross over to the other arm. At baseline and at the end of each treatment period, parameters of insulin sensitivity were assessed by a frequently sampled intravenous glucose tolerance test (FSIVGTT) and an oral glucose tolerance test (OGTT). A whole body glucose disposal index of insulin sensitivity (SI) was derived using a minimal model analysis. Adipose tissue-SI, which reflects insulin-induced free fatty acid suppression, was estimated by the log-linear slope of free fatty acid levels and the AUC of insulin during the FSIVGTT. Matsuda index, oral glucose insulin sensitivity index (OGIS, ml/min/m^2), and hepatic insulin resistance index (HIRI, mg/dl×microU/ml×10^5) were derived from OGTT. Adipo-IR, a surrogate measure of adipocyte insulin resistance, was calculated by multiplying fasting concentrations of free fatty acids and insulin (mmol×pmol/L). Comparison of various post-treatment parameters was performed using crossover ANOVA. This analysis takes into account specific treatment arm, treatment order, and treatment effects. Thus, carryover effects were explicitly tested for in the crossover study.
On day 3 of baseline and post-treatment testing, subjects underwent a 75-gram OGTT. Serial blood draws for measurement of glucose, insulin and c-peptide were obtained at −5, 0, 30, 60, 90, 120, 150, and 180 minutes.
The Matsuda index and Oral Glucose Insulin Sensitivity Index (OGIS), surrogate indices of whole-body insulin sensitivity were derived from plasma glucose and insulin concentrations during the OGTT as previously described. Abdul-Ghani M A, et. al., Diabetes Care 2007; 30 (1): 89-94. HIRI was calculated as the product of the area under the curves of glucose and insulin for the first 30 minutes of the OGTT. Abdul-Ghani M A, ibid. The Adipo-IR index, a surrogate measure for fasting adipose adipose-tissue insulin resistance, was calculated as the product of fasting insulin and fasting FFA. Sondergaard E. et al., J. Clin. Endocrinol. Metab. 2017; 102(4):1193-9. A dynamic surrogate index of adipose tissue insulin sensitivity was assessed by calculating insulin's ability to suppress FFA levels during a FSIVGTT. Carpenter A. et al., Diabetes 2002; 51(6):1867-75 and Trottier A. et al. Fertil. Steril. […]; 98 (6):1627-34. The adipose tissue insulin sensitivity index was calculated as the ratio of the slope of the linear decrease in natural log transformed FFA [Ln (FFA) slope] during the first 90 minutes of the FSIVGTT and the AUC of insulin during that 90-minute period (AUCInsulin 0-90 min). Mathematical modeling of C-peptide concentrations was used to estimate insulin secretory rates and calculate β-cell responsivity parameters (basal (∅B); first-phase (∅1); second phase (∅2); and total (∅TOT) as previously described. Toffolo G. et al., Metabolism 1999; 48 (9):1162-6 and Cobelli C. et al. Am. J. Physiol. Endocrinol. Metab. 2007; 293 (1): E1-E5. Assuming an absence of hepatic C-peptide extraction, postprandial insulin clearance was calculated as the ratio of mean insulin secretion and insulin concentration. Trico D. et al. JCI Insight 2018; 3(24):e124912.

Experiment [2] can be described thus: Plasma hormone levels (testosterone, androstenedione, DHEA sulfate). It is filed as in vivo, human. The note with it: 50 mg every 6 hours for 9 days, mean±SD. The method, then: To reduce potential variability associated with estrogen in premenopausal women, testing was performed in the early follicular phase (days 1-7 of menstrual cycle). Baseline height and weight were measured after an overnight fast. Subjects received an isocaloric regular diet during the inpatient part of the study, and those on metformin took the same dose throughout the study. Baseline testing took place took place over three inpatient days at the NIH Clinical Center, during which fasting blood was drawn, 24-hour urine was collected, 24-hour serial blood draws were obtained, and patients received both a […] (FSIVGTT) and a 75-g oral glucose tolerance test (OGTT). Subjects were then randomized to receive placebo or mifepristone for 9 days, of which the first 6 days the subjects returned home, and the final 3 days subjects underwent the same metabolic testing as during the baseline period. Subjects randomized to the mifepristone treatment arm were instructed to take one capsule (50 mg) every 6 hours (200 mg/day) over the course of 9 days. The placebo treatment arm received the same instructions to take one capsule every 6 hours over the course of the 9-day treatment period. Following the completion of the post-drug testing, subjects entered a 6-8 week washout period, after which they were crossed over to the other treatment arm, serving as their own controls for the study drug treatments.

On to `CC#C[C@]1(O)CC[C@H]2[C@@H]3CCC4=CC(=O)CCC4=C3[C@@H](c3ccc(N(C)C)cc3)C[C@@]21C` [Mifepristone, 11beta-[p-(dimethylamino)phenyl]-17alpha-(1-propynl)estra-4,9-dien-17beta-ol-3-one], for which the “Insulin clearance during OGTT vs placebo” value in experiment [1] is listed as “lower”. Also, in experiment [1] (3-hr OGTT), the “AUC for glucose during OGTT vs placebo” value is listed as “not statistically significant” and the “AUC for insulin during OGTT, lower compared to placebo” value was “about 25%”. Also, the “Hepatic Insulin Resistance Index (HIRI)” value in experiment [1] (AUC glucose × AUC insulin, first 30 min of OGTT, mean±SD, n=16) is reported as 50.2±38.7 mg/dl×microU/ml×10^5. For the same compound, in experiment [1] (C-peptide modeling), the “Fasting insulin secretory rate (ISR) vs placebo” value is listed as “significantly lower” and the “ISR during OGTT vs placebo” value is “not different”. In experiment [1] (derived from OGTT), the “Static, dynamic and total β-cell responsivity indices vs placebo” value is on record as “similar”. Moreover, in experiment [2] (n=16), the Androstenedione is 110 ± 64.7 ng/dL and the “DHEA Sulfate” value came to 1.04 ± 0.64 µg/mL. Besides, the “Total testosterone (male)” value in experiment [2] (male subjects) amounted to 235.2 ± 87.5 ng/dL.
